# Reference: ChEMBL document CHEMBL1201862, “PubChem BioAssay data set” (2004)
#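 The compound was tested at five concentrations on cells cultured in 96-well plates, with a 48-hour exposure period. GI50 marks 50% less growth.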 Active and inactive are the calls of the source. Rule as the data show it: active = GI50 up to about 1.1 µM and inactive = higher.
# Key:
# Test in all cases: NCI-60 cell line screen, 48 h
# 786-0 = tested on: 786-0
# HT-29 = tested on: HT-29
# MDA-MB-435 = tested on: MDA-MB-435
# HCT-15 = tested on: HCT-15
# EKVX = tested on: EKVX
# RXF 393 = tested on: RXF 393
# SNB-19 = tested on: SNB-19
# BT-549 = tested on: BT-549
# MCF7 = tested on: MCF7
# UO-31 = tested on: UO-31
# NCI/ADR-RES = tested on: NCI/ADR-RES
# SK-MEL-5 = tested on: SK-MEL-5
# T47D = tested on: T47D
# SK-MEL-2 = tested on: SK-MEL-2
# OVCAR-5 = tested on: OVCAR-5
# K562 = tested on: K562
# CCRF-CEM = tested on: CCRF-CEM
# SF-295 = tested on: SF-295
# TK-10 = tested on: TK-10
# SF-268 = tested on: SF-268
# MDA-MB-231 = tested on: MDA-MB-231
# NCI-H226 = tested on: NCI-H226
# SK-MEL-28 = tested on: SK-MEL-28
# KM12 = tested on: KM12
# UACC-257 = tested on: UACC-257
# Hs-578T = tested on: Hs-578T
# PC-3 = tested on: PC-3
# A549 = tested on: A549
# OVCAR-3 = tested on: OVCAR-3
# M14 = tested on: M14
# COLO 205 = tested on: COLO 205
# DU-145 = tested on: DU-145
# OVCAR-8 = tested on: OVCAR-8
# UACC-62 = tested on: UACC-62
# NCI-H23 = tested on: NCI-H23
# MDA-N = tested on: MDA-N
# LOX IMVI = tested on: LOX IMVI
# CAKI-1 = tested on: CAKI-1
# MOLT-4 = tested on: MOLT-4
# HOP-62 = tested on: HOP-62
# HCT-116 = tested on: HCT-116
# HL-60 = tested on: HL-60
# U-251 = tested on: U-251
# IGROV-1 = tested on: IGROV-1
# HOP-92 = tested on: HOP-92
# RPMI-8226 = tested on: RPMI-8226
# OVCAR-4 = tested on: OVCAR-4
# SW-620 = tested on: SW-620
# NCI-H460 = tested on: NCI-H460
# SN12C = tested on: SN12C
# NCI-H522 = tested on: NCI-H522
# SK-OV-3 = tested on: SK-OV-3
# HCC 2998 = tested on: HCC 2998
# SNB-75 = tested on: SNB-75
# A498 = tested on: A498
# SR = tested on: SR
# SF-539 = tested on: SF-539
# Malme-3M = tested on: Malme-3M
compound,measurement,setting,value
CCc1n[nH]c(=O)n1/N=C(\C)c1ccc([N+](=O)[O-])cc1,GI50,786-0,> 100 µM (inactive)
same,GI50,HT-29,36.6 µM (inactive)
same,GI50,MDA-MB-435,59.7 µM (inactive)
same,GI50,HCT-15,> 100 µM
same,GI50,EKVX,> 100 µM (inactive)
same,GI50,RXF 393,78.5 µM (inactive)
same,GI50,SNB-19,> 100 µM (inactive)
same,GI50,BT-549,> 100 µM (inactive)
same,GI50,MCF7,30.2 µM (inactive)
same,GI50,UO-31,> 100 µM (inactive)
same,GI50,NCI/ADR-RES,> 100 µM (inactive)
same,GI50,SK-MEL-5,> 100 µM (inactive)
same,GI50,T47D,> 100 µM (inactive)
same,GI50,SK-MEL-2,> 100 µM (inactive)
same,GI50,OVCAR-5,> 100 µM (inactive)
same,GI50,K562,97.7 µM (inactive)
same,GI50,CCRF-CEM,> 100 µM (inactive)
same,GI50,SF-295,> 100 µM (inactive)
same,GI50,TK-10,> 100 µM (inactive)
same,GI50,SF-268,26.3 µM (inactive)
same,GI50,MDA-MB-231,19.7 µM (inactive)
same,GI50,NCI-H226,> 100 µM (inactive)
same,GI50,SK-MEL-28,> 100 µM (inactive)
same,GI50,KM12,> 100 µM (inactive)
same,GI50,UACC-257,> 100 µM (inactive)
same,GI50,Hs-578T,92.3 µM (inactive)
same,GI50,PC-3,> 100 µM (inactive)
same,GI50,A549,86.7 µM (inactive)
same,GI50,OVCAR-3,> 100 µM (inactive)
same,GI50,M14,> 100 µM (inactive)
same,GI50,COLO 205,46.5 µM (inactive)
same,GI50,DU-145,27.5 µM (inactive)
same,GI50,OVCAR-8,> 100 µM (inactive)
same,GI50,UACC-62,> 100 µM (inactive)
same,GI50,NCI-H23,66.8 µM (inactive)
same,GI50,MDA-N,> 100 µM (inactive)
same,GI50,LOX IMVI,49.4 µM (inactive)
same,GI50,CAKI-1,> 100 µM (inactive)
same,GI50,MOLT-4,> 100 µM (inactive)
same,GI50,HOP-62,> 100 µM (inactive)
same,GI50,HCT-116,> 100 µM (inactive)
same,GI50,HL-60,> 100 µM (inactive)
same,GI50,U-251,> 100 µM (inactive)
same,GI50,IGROV-1,82.6 µM (inactive)
same,GI50,HOP-92,> 100 µM (inactive)
same,GI50,RPMI-8226,> 100 µM (inactive)
same,GI50,OVCAR-4,> 100 µM (inactive)
same,GI50,SW-620,94.2 µM (inactive)
same,GI50,NCI-H460,46.2 µM (inactive)
same,GI50,SN12C,54.7 µM (inactive)
CC1=C(C(=O)OC23CC4CC(CC(C4)C2)C3)C(c2ccccc2OC(F)F)C(C(=O)OC23CC4CC(CC(C4)C2)C3)=C(C)N1 (stereo not given),GI50,786-0,> 100 µM (inactive)
same,GI50,HT-29,> 100 µM (inactive)
same,GI50,MDA-MB-435,> 100 µM (inactive)
same,GI50,HCT-15,> 100 µM
same,GI50,EKVX,> 10 µM (inactive)
same,GI50,RXF 393,> 100 µM (inactive)
same,GI50,SNB-19,> 100 µM (inactive)
same,GI50,BT-549,> 100 µM (inactive)
same,GI50,MCF7,74.6 µM (inactive)
same,GI50,UO-31,> 100 µM (inactive)
same,GI50,NCI/ADR-RES,> 100 µM (inactive)
same,GI50,SK-MEL-5,> 100 µM (inactive)
same,GI50,T47D,> 100 µM (inactive)
same,GI50,SK-MEL-2,> 100 µM (inactive)
same,GI50,OVCAR-5,> 100 µM (inactive)
same,GI50,CCRF-CEM,> 100 µM (inactive)
same,GI50,SF-295,> 100 µM (inactive)
same,GI50,SF-268,> 100 µM (inactive)
same,GI50,MDA-MB-231,> 100 µM (inactive)
same,GI50,NCI-H522,75.2 µM (inactive)
same,GI50,SK-OV-3,> 100 µM (inactive)
same,GI50,NCI-H226,> 100 µM (inactive)
same,GI50,SK-MEL-28,> 100 µM (inactive)
same,GI50,KM12,> 100 µM (inactive)
same,GI50,UACC-257,> 100 µM (inactive)
same,GI50,Hs-578T,68.2 µM (inactive)
same,GI50,A549,> 100 µM (inactive)
same,GI50,OVCAR-3,50.5 µM (inactive)
same,GI50,M14,> 100 µM (inactive)
same,GI50,COLO 205,> 100 µM (inactive)
same,GI50,DU-145,> 100 µM (inactive)
same,GI50,OVCAR-8,> 100 µM (inactive)
same,GI50,HCC 2998,> 100 µM (inactive)
same,GI50,UACC-62,> 100 µM (inactive)
same,GI50,NCI-H23,> 100 µM (inactive)
same,GI50,MDA-N,> 100 µM (inactive)
same,GI50,LOX IMVI,> 100 µM (inactive)
same,GI50,CAKI-1,> 100 µM (inactive)
same,GI50,SNB-75,43.7 µM (inactive)
same,GI50,MOLT-4,63.7 µM (inactive)
same,GI50,HOP-62,> 100 µM (inactive)
same,GI50,HCT-116,> 100 µM (inactive)
same,GI50,HL-60,> 100 µM (inactive)
same,GI50,U-251,> 100 µM (inactive)
same,GI50,IGROV-1,> 100 µM (inactive)
same,GI50,HOP-92,> 100 µM (inactive)
same,GI50,A498,> 100 µM (inactive)
same,GI50,RPMI-8226,> 100 µM (inactive)
same,GI50,OVCAR-4,> 100 µM (inactive)
same,GI50,SR,> 100 µM (inactive)
same,GI50,SF-539,> 100 µM (inactive)
same,GI50,SW-620,> 100 µM (inactive)
same,GI50,NCI-H460,> 100 µM (inactive)
same,GI50,SN12C,> 100 µM (inactive)
same,GI50,Malme-3M,> 100 µM (inactive)
